Source: paper PMC3875372 (Biochemistry, 2013)

Legend:
ecDHFR = conditions: cited from earlier work
[1] = standards; 2-aminopyridine λex 295 nm, anthracene λex 340 nm; cited from earlier work
[2] = system: modified DHFRs (biphenyl-phenylalanines at position 115); assay: Inhibition of the modified DHFRs; assay type: biochemical, E. coli; conditions: all four DHFRs modified at position 115

Compound: 4-biphenyl-L-phenylalanine
- effect on the rate at which ecDHFR consumed NADPH (ecDHFR; replacement of Ile115, in the presence of dihydrofolate): no significant effect

Compound: c1ccc2cc3ccccc3cc2c1 [anthracene]
- ΦF of quantum yield standard [1]: 0.27

Compound: L-(7-hydroxycoumarin-4-yl)ethylglycine
- rate of NADPH consumption relative to wild type (ecDHFR; position 115 of ecDHFR): about 25%

Compound: Nc1ccccn1 [2-aminopyridine]
- ΦF of quantum yield standard [1]: 0.60

Compound: CN(Cc1cnc2nc(N)nc(N)c2n1)c1ccc(C(=O)N[C@@H](CCC(=O)O)C(=O)O)cc1 [methotrexate]
- inhibition of the modified enzymes compared with wild type [2]: about the same extent as wild type
